{"source": "patent US20210077477A1", "about": "“MICROGLIA MODULATORS FOR USE IN TREATMENT OF DEPRESSION” (priority 2018, published 2021)", "key": {"CUS-exposed mice [1]": {"test_system": "CUS-exposed mice", "test": "Social exploration test in the CUS model", "assay_type": "in vivo", "protocol": "(§1) The CUS schedule comprised daily exposure to two stressors in a random order over a 5-week period. The list of CUS stressors included: cage shaking for 1 h with loud music and lights on, lights on during the entire night (12 h), lights-off for 3 h during the daylight phase, flashing (stroboscopic) light for 6 h, placement in 4° C. cold room for 1 h, mild restraint (in small ventilated cages) for 2 h, 45° cage tilt for 14 h, wet sawdust in the cage for 14 h, exposure to rat odor for 2 h, noise in the room for 3 h, and water deprivation for 12 h during the dark period.\nEach subject was placed in an observation cage and allowed to habituate to the cage for 15 min, following which a male juvenile was placed in the cage. Social exploration, defined as the time of near contact between the nose of the subject and the juvenile conspecific, was then recorded for 2 min, using computerized in-house software."}, "CUS-exposed mice [2]": {"test_system": "CUS-exposed mice", "test": "Sucrose preference test (anhedonia) in the CUS model", "assay_type": "in vivo", "protocol": "as §1\nFollowing baseline adaptation to sucrose for 3-4 days, mice were presented in the beginning of the dark circadian phase with two graduated drinking tubes, one containing tap water and the other 1% sucrose solution for 4 h. Sucrose preference was calculated as the percentage of sucrose consumption out of the total drinking volume."}, "brain microglia [3]": {"test_system": "brain microglia", "test": "Microglia depletion by PLX5622 diet (IBA-1 staining)", "assay_type": "in vivo, mice", "conditions": "diet containing PLX5622 for weeks, incl. hippocampus"}, "brain microglia [4]": {"test_system": "brain microglia", "conditions": "given chronically (more than 2-3 weeks); Danger et al., 2015; cited from earlier work"}, "hippocampal neurogenesis": {"test_system": "hippocampal neurogenesis", "test": "Hippocampal neurogenesis (DCX-positive cells in the DG)", "assay_type": "in vivo, mice", "conditions": "CUS-exposed, PLX diet, DCX-stained cells in DG", "protocol": "Microglia were visualized using a primary antibody to the microglial marker ionized calcium-binding adapter molecule-1 (Iba-1) (rabbit anti Iba-1 1:250, Wako, Japan), followed by a secondary antibody (goat anti rabbit, 1:200; Invitrogen, Carlsbad, Calif., USA). The rate of neurogenesis in the hippocampus was measured by staining for doublecortin (DCX), using guinea pig anti-DCX (1:1,000, Millipore, Chemicon, Tamecula, Calif., USA) as the primary antibody, and biotin-SP-conjugated donkey anti-Guinea pig (1:200; Jackson Laboratories, West grove, PA, USA) as the secondary antibody, with final visualization using a conjugated streptavidin Ab (Jackson Laboratories, West grove, PA, USA). […]\nImages were captured using a Nikon Eclipse microscope and camera. Cells were manually counted using 10× magnification in a defined area exclusively containing the dentate gyrus (DG) or CA3 region of the dorsal hippocampus for each slide, using Nikon Imaging Elements Software (NIS-Elements). Four sections of each brain were counted. […] Microglia cell processes length was measured by capturing images at 40× magnification and by manual tracing of the processes of all Iba-1+ cells in these sections, using the Image)/FIJI software. […] Contacts were recorded if spatial overlap was observed on the body or on the dendrite branches of P2YR12-positive cells. […]"}, "CUS-exposed mice [5]": {"test_system": "CUS-exposed mice", "test": "Porsolt forced swim test in the CUS model", "assay_type": "in vivo", "protocol": "as §1\nMice were placed in a plastic cylinder (with a height of 30 cm and diameter of 20 cm), filled with 25° C. water. The time spent immobile, defined as the absence of all movement except for motions required to maintain head above water were recorded for 6 min, and automatically analyzed off-line using the EthoVision software (Noldus)."}, "[6]": {"test_system": "hippocampal gene transcripts", "test": "RNA sequencing of hippocampal gene transcription", "assay_type": "in vivo, mice", "conditions": "for Log 2 (fold change) Con-Stress-Sham vs. PLX-Stress-Sham: hippocampus", "source_text": "RNA Sequencing, PolyA based mRNA was selected using oligodT beads, followed by fragmentation, first strand and second strand synthesis reactions. Illumina libraries were constructed while performing the end repair, A base addition, adapter ligation and PCR amplification steps with SPRI beads cleanup in between steps. Indexed samples were pooled and sequenced in an Illumina HiSeq 2500 machine in a single read mode.\nBioinformatics analysis. Adapters were trimmed using the cutadapt tool. Following adapter removal, reads that were shorter than 40 nucleotides were discarded (cutadapt option −m 40). Reads that had either a percentage of Adenine bases above 50% or a percentage of Thymine bases above 50% were discarded using a custom script. TopHat (v2.0.10) was used to align the reads to the mouse genome (mm10). Counting reads on mm10 refseq genes (downloaded from igenomes) was done with HTSeq-count (version 0.6.1p1). Differential expression analysis was performed using DESeq2 (1.6.3). Raw p values were adjusted for multiple testing (q-value, false discovery rate)."}, "[7]": {"test_system": "hippocampal gene transcripts", "test": "qPCR validation of hippocampal gene expression", "assay_type": "in vivo", "conditions": "hippocampus, CUS-exposed mice", "protocol": "Mice were sacrificed by decapitation. Each brain was quickly removed on an ice-cold glass plate, and the hippocampus was dissected out under a binocular. Tissues were weighed, flash frozen in liquid nitrogen, and stored in −80° C. until RNA extraction. RNA was extracted using PerfectPure RNA extraction kit (5 PRIME, Darmstadt, Germany). RNA samples (2 μg) were reverse transcribed using the QuantiTect Reverse Transcription Kit from Qiagen (Hilden, Germany), including DNase treatment of contaminating genomic DNA. Expression of mRNA was determined by qPCR, using glyceraldehyde-3-phosphate dehydrogenase (Gapdh) as a normalizing gene. The following list of gene transcripts was validated: Ionized calcium-binding adapter molecule 1 (Iba1), the Purinergic receptor P2yr12, Lymphocyte-activation gene 3 (Lag-3), Cd180, tryptophan 2,3-dioxygenase (Tdo2), Phospholipase A2 Group IVE (Plag24e) Sox11, and Dopamine Receptor D1 (Drd1). Primers were designed using PrimerQuest IDT (Integrated DNA Technologies, Inc, San Diego, Calif., USA). The following primers were used, Gapdh, Forward: TCTCCCTCACAATTTCC (SEQ ID NO: 1); Reverse: GGGTGCAGCGAACTTTA (SEQ ID NO: 2). Drd1, Forward: […] (SEQ ID NO: 3); Reverse: […] (SEQ ID NO: 4). Tdo2, Forward: […] (SEQ ID NO: 5); Reverse: […] (SEQ ID NO: 6). Iba1, Forward: […] (SEQ ID NO: 7); Reverse: […] (SEQ ID NO: 8). Lag-3, Forward: […] (SEQ ID NO: 9); Reverse: […] (SEQ ID NO: 10). Cd180, Forward: […] (SEQ ID NO: 11); Reverse: […] (SEQ ID NO: 12). Sox11, Forward: […] (SEQ ID NO: 13); Reverse: […] (SEQ ID NO: 14). Plag24e, Forward: […] (SEQ ID NO: 15); Reverse: […] (SEQ ID NO: 16), and P2yr12 Forward: […] (SEQ ID NO: 17); Reverse: […] (SEQ ID NO: 18). Normal and mock reversed transcribed samples (in the absence of reverse transcriptase), as well as no template controls (total mix without cDNA) were run for each of the examined mRNAs. qPCR reactions were subjected to an initial step of 15 min at 95° C. to activate the HotStar Taq DNA polymerase, followed by 40 cycles consisting of 15 s at 94° C., 30 s at 60° C. and 30 s at 72° C. Fluorescence was measured at the end of each elongation step. Data were collected and analyzed using the StepOnePlus instrument and software (Thermo Fischer Scientific), and a threshold cycle value Ct was calculated from the exponential phase of each PCR sample. Expression levels of mRNAs were calculated and expressed in relative units of SYBR Green fluorescence."}, "[8]": {"conditions": "CUS 5 weeks, antibody 100 μg i.p. every 4 days, 6 injections, Cipralex daily i.p., 3 weeks"}, "[9]": {"conditions": "PLX5622 diet, non-stressed mice"}, "[10]": {"conditions": "CUS-exposed SHAM-treated mice, q<0.32, cutoff ±1.3-fold"}}, "note": "“Also recorded” adds a separate entry of the source."}
{"smiles": "CN(C)CCC[C@@]1(c2ccc(F)cc2)OCc2cc(C#N)ccc21", "note": "[escitalopram]", "values": [{"measurement": "social exploration (SE) after vs before chronic treatment", "setting": "CUS-exposed mice [1]; [8]", "value": "significantly elevated; also recorded: significant increase"}, {"measurement": "sucrose preference after vs before chronic treatment", "setting": "CUS-exposed mice [2]; [8]", "value": "had no such effect"}]}
{"smiles": "COc1ncc(F)cc1CNc1ccc(Cc2c[nH]c3ncc(C)cc23)c(F)n1", "note": "[PLX5622]", "values": [{"measurement": "difference between effects of ECT on social exploration in PLX vs CDiet mice", "setting": "CUS-exposed mice [1]; CUS-exposed, ECT 2.5 weeks", "value": "did not reach statistical significance"}, {"measurement": "social exploration, effect of microglia depletion by itself", "setting": "CUS-exposed mice [1]; [9]", "value": "did not reduce"}, {"measurement": "depletion of brain microglia", "setting": "brain microglia [3]", "value": "near-complete depletion"}, {"measurement": "microglial depletion", "setting": "brain microglia [4]", "value": "near-complete microglial depletion"}, {"measurement": "effect of ECT on hippocampal neurogenesis under microglia depletion", "setting": "hippocampal neurogenesis", "value": "completely prevented"}, {"measurement": "effect of ECT on hippocampal neurogenesis under microglia depletion", "setting": "hippocampal neurogenesis; listed as PLX", "value": "significantly reduced"}, {"measurement": "forced swim immobility of ECT-treated PLX mice vs CDiet mice", "setting": "CUS-exposed mice [5]; CUS-exposed, ECT 2.5 weeks", "value": "significantly greater forced swim immobility"}, {"measurement": "immobility in forced swim, effect of microglia depletion by itself", "setting": "CUS-exposed mice [5]; [9]", "value": "did not reduce"}, {"measurement": "genes differentially regulated, PLX vs CDiet", "setting": "[6]; [10]", "value": 390, "unit": "genes"}, {"measurement": "genes down-regulated, PLX vs CDiet", "setting": "[6]; [10]", "value": 338, "unit": "genes"}, {"measurement": "genes up-regulated, PLX vs CDiet", "setting": "[6]; [10]", "value": 52, "unit": "genes"}, {"measurement": "genes differentially regulated between SHAM vs ECT in PLX-treated groups", "setting": "[6]; CUS-exposed mice", "value": "no genes were differentially regulated"}, {"measurement": "Log 2 (fold change) Con-Stress-Sham vs. PLX-Stress-Sham", "setting": "[6]; Cd40 transcript", "value": 0.159}, {"measurement": "Log 2 (fold change) Con-Stress-Sham vs. PLX-Stress-Sham", "setting": "[6]; Cd80 transcript", "value": 0.371}, {"measurement": "Log 2 (fold change) Con-Stress-Sham vs. PLX-Stress-Sham", "setting": "[6]; Cd86 transcript", "value": 2.092}, {"measurement": "Log 2 (fold change) Con-Stress-Sham vs. PLX-Stress-Sham", "setting": "[6]; Cd180 transcript", "value": 1.892}, {"measurement": "Log 2 (fold change) Con-Stress-Sham vs. PLX-Stress-Sham", "setting": "[6]; Cd276 transcript", "value": 0.019}, {"measurement": "Log 2 (fold change) Con-Stress-Sham vs. PLX-Stress-Sham", "setting": "[6]; Ctla4 transcript", "value": 0.100}, {"measurement": "Log 2 (fold change) Con-Stress-Sham vs. PLX-Stress-Sham", "setting": "[6]; Havcr2 (TIM-3) transcript", "value": 2.101}, {"measurement": "Log 2 (fold change) Con-Stress-Sham vs. PLX-Stress-Sham", "setting": "[6]; Lag-3 transcript", "value": 1.968}, {"measurement": "Log 2 (fold change) Con-Stress-Sham vs. PLX-Stress-Sham", "setting": "[6]; Lgals3 transcript", "value": 0.011}, {"measurement": "Log 2 (fold change) Con-Stress-Sham vs. PLX-Stress-Sham", "setting": "[6]; PD-L1 transcript", "value": 0.164}, {"measurement": "Log 2 (fold change) Con-Stress-Sham vs. PLX-Stress-Sham", "setting": "[6]; Pdcd1lg2 transcript", "value": "−0.373"}, {"measurement": "Log 2 (fold change) Con-Stress-Sham vs. PLX-Stress-Sham", "setting": "[6]; Pdcd1 transcript", "value": "−0.669"}, {"measurement": "Log 2 (fold change) Con-Stress-Sham vs. PLX-Stress-Sham", "setting": "[6]; Tdo2 transcript", "value": "−0.248"}, {"measurement": "Log 2 (fold change) Con-Stress-Sham vs. PLX-Stress-Sham", "setting": "[6]; Tigit transcript", "value": "−0.804"}, {"measurement": "Log 2 (fold change) Con-Stress-Sham vs. PLX-Stress-Sham", "setting": "[6]; Vtcn1 transcript", "value": "−0.905"}, {"measurement": "Cd180 gene expression in PLX-treated mice", "setting": "[7]", "value": "lower expression levels"}, {"measurement": "Drd1 expression, effect of the microglia depletion procedure by itself", "setting": "[7]", "value": "not affected"}, {"measurement": "Iba1 expression, effect of the PLX5622 procedure", "setting": "[7]", "value": "significantly reduced"}, {"measurement": "Lag-3 transcription in PLX-treated mice", "setting": "[7]", "value": "almost completely abolished"}, {"measurement": "P2ry12 expression, effect of the PLX5622 procedure", "setting": "[7]", "value": "significantly reduced"}, {"measurement": "Sox11 expression, effect of the microglia depletion procedure by itself", "setting": "[7]", "value": "not affected"}, {"measurement": "Tdo2 expression in PLX5622-treated mice", "setting": "[7]", "value": "significantly increased"}, {"measurement": "pla2g4e expression in PLX5622-treated mice", "setting": "[7]", "value": "significantly increased"}, {"measurement": "anti-depressive effect of ECT under microglial depletion", "setting": "CUS-exposed mice [2]; CUS-exposed, PLX5622 diet, 2.5-week course of ECT", "value": "markedly attenuated"}, {"measurement": "effect of ECT on sucrose preference in PLX diet mice", "setting": "CUS-exposed mice [2]; CUS-exposed, PLX diet, ECT 3 times/week for 2.5 weeks", "value": "only a small increase"}, {"measurement": "development of CUS-induced depression", "setting": "CUS-exposed mice [2]; PLX5622 diet, 5 weeks CUS, sucrose preference and social exploration", "value": "did not influence"}, {"measurement": "sucrose preference, effect of microglia depletion by itself", "setting": "CUS-exposed mice [2]; [9]", "value": "did not reduce"}]}
